In patent publication US8278090B1, “Heterotrophic cultivation of hydrocarbon-producing microalgae” (Solazyme, Inc., priority 2008, dated 2012):
Values joined by “and” are separate entries in the source; they are usually repeats but may differ in a detail not shown here. Identical values can stand only once.

Experiments:
Type in all cases: cell-based
[1] = tested on: Botryococcus braunii N-836; test: Different fixed carbon sources on heterotrophic growth, visual score; parameters: key to heterotrophic growth score, 0.1% / heterotrophic growth score, 0.5% / heterotrophic growth score, 1%: Growth was scored with +'s by visual examination of the cultures; ++: Growth was scored with +'s by visual examination of the cultures; +++: Growth was scored with +'s by visual examination of the cultures; ++++: Growth was scored with +'s by visual examination of the cultures; +++++: Growth was scored with +'s by visual examination of the cultures; conditions: for heterotrophic growth score, 0.1%: N-836, 0.1% carbon source in 1 ml BG11, dark; for heterotrophic growth score, 0.1% / heterotrophic growth score, 0.5% / heterotrophic growth score, 1%: 4 weeks; for heterotrophic growth score, 0.5%: N-836, 0.5% carbon source in 1 ml BG11, dark; for heterotrophic growth score, 1%: N-836, 1% carbon source in 1 ml BG11, dark; for heterotrophic growth on carbon source, in words: N-836, dark
Protocol: (§1) All carbon sources were tested at three different concentrations; 0.1%, 0.5% and 1%. Cultures were grown in 24 well plates for 4 weeks in the dark in 1 ml BG11 plus fixed carbon. Control cultures were grown in BG-11 media under phototrophic conditions without a fixed carbon source. Growth was scored with +'s by visual examination of the cultures (see Table 7). UTEX 572 grew best in glucose, however there was also growth on mannose, galactose and fructose. UTEX 2441 preferred mannose in the dark but there was some growth in galactose, fructose and glycerol.

[2] = tested on: Botryococcus braunii UTEX 2441; test: as above; parameters: key to heterotrophic growth score, 0.1% / heterotrophic growth score, 0.5% / heterotrophic growth score, 1%: Growth was scored with +'s by visual examination of the cultures; ++: Growth was scored with +'s by visual examination of the cultures; +++: Growth was scored with +'s by visual examination of the cultures; ++++: Growth was scored with +'s by visual examination of the cultures; +++++: Growth was scored with +'s by visual examination of the cultures; conditions: for heterotrophic growth score, 0.1%: UTEX 2441, 0.1% carbon source in 1 ml BG11, dark; for heterotrophic growth score, 0.1% / heterotrophic growth score, 0.5% / heterotrophic growth score, 1%: 4 weeks; for heterotrophic growth score, 0.5%: UTEX 2441, 0.5% carbon source in 1 ml BG11, dark; for heterotrophic growth score, 1%: UTEX 2441, 1% carbon source in 1 ml BG11, dark; for heterotrophic growth on carbon source, in words: UTEX 2441, dark
Protocol: as §1

[3] = tested on: Botryococcus braunii UTEX 572; test: as above; parameters: key to heterotrophic growth score, 0.1% / heterotrophic growth score, 0.5% / heterotrophic growth score, 1%: Growth was scored with +'s by visual examination of the cultures; ++: Growth was scored with +'s by visual examination of the cultures; +++: Growth was scored with +'s by visual examination of the cultures; ++++: Growth was scored with +'s by visual examination of the cultures; +++++: Growth was scored with +'s by visual examination of the cultures; conditions: for heterotrophic growth score, 0.1%: UTEX 572, 0.1% carbon source in 1 ml BG11, dark; for heterotrophic growth score, 0.1% / heterotrophic growth score, 0.5% / heterotrophic growth score, 1%: 4 weeks; for heterotrophic growth score, 0.5%: UTEX 572, 0.5% carbon source in 1 ml BG11, dark; for heterotrophic growth score, 1%: UTEX 572, 1% carbon source in 1 ml BG11, dark; for heterotrophic growth on carbon source, in words: UTEX 572, dark
Protocol: as §1

[4] = tested on: Botryococcus braunii UTEX 2441; test: Mixotrophic growth with fixed carbon source in BG11 media in light; conditions: for DCW / DCW mg/15 ml.: three weeks
Protocol: (§2) Modified BG-11 (17.65 mM NaNO3, 0.23 mM K2PO4, 0.3 mM MgSO4.7H2O, 0.25 mM CaCl2.2H2O, 0.189 mM Na2CO3, 0.03 mM citric acid monohydrate, 0.023 mM ferric ammonium citrate, 0.046 mM H3BO3, 9.15 μM MnCl2.4H2O, 0.77 μM ZnSO4.7H2O, 0.32 μM CuSO4.5H2O, 0.21 μM CoCl2.6H2O, 1.62 μM NaMoO4.2H2O, 2.69 μM Na2EDTA, 9 mg/l Tricine, 1.99 μM Thiamine-HCl, 0.006 μM Cyanocobalamine, 0.044 μM Calcium Pantothenate, 0.29 μM p-aminobenzoic acid, soil water). […] Dry cell weight (DCW) were measured after three weeks for the glycerol samples.

[5] = tested on: Botryococcus braunii UTEX 572; test: as above; conditions: for DCW / DCW mg/15 ml.: three weeks
Protocol: as §2

[6] = tested on: Botryococcus braunii UTEX 2441; test: Complex nitrogen sources on heterotrophic growth with glucose; conditions: UTEX 2441, 1% glucose + 10 mM Urea, dark, 4 weeks
Protocol: (§3) The following experiment was done with UTEX 572, UTEX 2441, and N-836 in 20 ml of BG11 plus:
(§4) 1% glucose+2 g/L hydrolyzed casein

[7] = tested on: Botryococcus braunii UTEX 572; test: as above; conditions: dark, 4 weeks
Protocol: as §3, §4

[8] = UTEX 2441, 0.75% glycerol in BG11, light
[9] = UTEX 2441, 1% glycerol in BG11, light
[10] = UTEX 2441, 1.5% glycerol in BG11, light
[11] = UTEX 572, 0.75% glycerol in BG11, light
[12] = UTEX 572, 1% glycerol in BG11, light
[13] = UTEX 572, 1.5% glycerol in BG11, light
[14] = UTEX 572, 1% glucose + 10 mM Urea

Structure (SMILES) | heterotrophic growth score, 0.1% [1] | heterotrophic growth score, 0.5% [1] | heterotrophic growth score, 1% [1] | heterotrophic growth on carbon source, in words [1] | heterotrophic growth score, 0.1% [2] | heterotrophic growth score, 0.5% [2] | heterotrophic growth score, 1% [2] | heterotrophic growth on carbon source, in words [2] | heterotrophic growth score, 0.1% [3] | heterotrophic growth score, 0.5% [3] | heterotrophic growth score, 1% [3] | heterotrophic growth on carbon source, in words [3] | further results
O=C[C@H](O)[C@@H](O)[C@@H](O)[C@H](O)CO [galactose] | ++ | ++ | ++ | heterotrophic growth | ++ | +++ | ++ | some growth | ++ | +++ | +++ | growth | 
O=C(CO)[C@@H](O)[C@H](O)[C@H](O)CO [fructose] | + | + | ++ | heterotrophic growth | ++ | +++ | +++ | some growth | ++ | ++ | ++ | growth | 
O=C[C@@H](O)[C@H](O)[C@H](O)CO [arabinose] | + | + | + |  | ++ | ++ | ++ |  | + | + | + |  | 
OCC(O)CO [glycerol] | + | + | + |  | ++ | +++ | +++ | some growth | + | + | + |  | DCW [4, 8]: 0.273 g/L and 0.286 g/L; DCW mg/15 ml. [4, 8]: 4.1 mg/15 ml and 4.3 mg/15 ml; DCW [4, 9]: 0.22 g/L and 0.32 g/L; DCW mg/15 ml. [4, 9]: 3.3 mg/15 ml and 4.8 mg/15 ml; DCW [4, 10]: 0.24 g/L and 0.286 g/L; DCW mg/15 ml. [4, 10]: 4.3 mg/15 ml and 4.7 mg/15 ml; increased growth with glycerol ([4]; UTEX 2441, light, mixotrophic): 66%; DCW [5, 11]: 0.273 g/L and 0.206 g/L; DCW mg/15 ml. [5, 11]: 4.1 mg/15 ml and 3.1 mg/15 ml; DCW [5, 12]: 0.267 g/L and 0.20 g/L; DCW mg/15 ml. [5, 12]: 4.0 mg/15 ml and 3.0 mg/15 ml; DCW [5, 13]: 0.24 g/L and 0.293 g/L; DCW mg/15 ml. [5, 13]: 3.6 mg/15 ml and 4.4 mg/15 ml; difference in growth with or without glycerol ([5]; UTEX 572, light, mixotrophic): marginal difference
NC(N)=O [Urea, urea] |  |  |  |  |  |  |  |  |  |  |  |  | DCW [6]: 0.10 g/L and 0.067 g/L; DCW mg/3 m1. [6]: 0.3 mg/3 m1 and 0.2 mg/3 m1; increased growth over glucose only culture ([7]; UTEX 572, 10 mM urea + 1% glucose): 76%; DCW [7, 14]: 0.467 g/L; DCW mg/3 m1. [7, 14]: 1.4 mg/3 m1
CC(=O)[O-].[Na+] [acetate, sodium acetate] | + | + | + |  | ++ | ++ | ++ |  | + | + | + |  | 
